This is an account of results in patent publication US11691928B2, “Compositions, systems and methods for delivery of an element in response to biological demand” (Lucent Biosciences, Inc., priority 2018, dated 2023).

A short description of data set [1]: Effect of composition on pH of surrounding tap water. Format: physicochemical. As to conditions: 4 ppm iron; tap water alone 6.93. From the text: Since the pH of water is an important factor in biology for microorganism growth and survival, experiments were undertaken to determine what effect the compositions had on the pH of surrounding water.
The effects of 4 ppm iron-loaded composition (“Fe—WP”), iron chloride and iron sulfate on the pH of tap water was examined. […] However, the same amount of iron with sources of iron chloride and iron sulfate reduced the pH of tap water within a range of 1.6-2.9 units.

A further data set relates to mung bean plants. The data set can be described thus: Plant growth study with salts or compositions comprising zinc or manganese on wood pulp in soil at elevated concentrations. Format: in vivo. The method, then: Mung bean seeds were planted in 2 g of sterile sunshine mix soil in autoclaved jars. […] The wood pulp, acting as the carrier, was Canfor 350/70-1 (carrier C from Table 1). […] The root length was measured from start of roots to longest root tip. […] The plants to be used in the presence of compositions as disclosed herein were sowed in 2 g of sunshine mix to which 0.1 g of the composition was added, made of various concentrations of zinc or manganese. These were all watered with 5 mL deionized water. The beans grew in this treatment for 9 further days.

Take `O=S(=O)([O-])[O-].O=S(=O)([O-])[O-].O=S(=O)([O-])[O-].[Fe+3].[Fe+3]` [Fe2(SO4)3, iron sulfate]: the “PH of tap water” value in data set [1] is given as 4.17. In the case of `[Cl-].[Cl-].[Zn+2]` [zinc, zinc chloride], the “toxicity for mung bean plants” value in the data set on mung bean plants (2000 ppm in soil) is “exhibits toxicity”. For the same compound, in the data set with mung bean plants (2000 ppm zinc as salt in soil, 9 days, FIGS. 7(a), 7(b)), the “mung bean stem height and root length growth” value was “reduced stem height and root length growth”.

On to iron chloride [FeCl3], for which, in data set [1], the “PH of tap water” value is given as 4.03.
